# In article PMC10065799, “High-throughput profiling of sequence recognition by tyrosine kinases and SH2 domains using bacterial peptide display” (eLife, 2023):
# Tests used:
# Assay in all cases: pTyr-Var library bacterial peptide display kinase screen (enrichment scores)
# c-Src kinase domain = c-Src kinase domain (Homo sapiens, UniProt P12931); type: biochemical; settings: for Screen: sheet "Src";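 for screen: log2 fold change in enrichment of variant over reference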
# c-Abl kinase domain = molecular target: T1, c-Abl kinase domain (Mus musculus, UniProt P00520); type: biochemical;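 note: log2 fold change in enrichment of variant over reference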
# T1 sequence (P00520 242-493 limits assumed): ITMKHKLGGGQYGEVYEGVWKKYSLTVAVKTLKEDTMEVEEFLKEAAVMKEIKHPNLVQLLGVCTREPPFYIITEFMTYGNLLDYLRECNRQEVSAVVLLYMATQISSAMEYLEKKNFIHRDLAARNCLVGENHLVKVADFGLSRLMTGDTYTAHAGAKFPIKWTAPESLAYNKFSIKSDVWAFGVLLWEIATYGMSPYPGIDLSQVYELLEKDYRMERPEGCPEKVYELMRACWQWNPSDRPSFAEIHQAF
# Fer kinase domain = type: biochemical, mouse; settings: sheet "Fer"
# [1] = effect of the variant peptide relative to its reference peptide in the pTyr-Var library screen
# [2] = sheet "Abl", effect of variant peptide relative to its reference peptide in pTyr-Var library screen (enrichment)
# [3] = variant peptide versus its reference peptide in the pTyr-Var library screen
# [4] = fig5-data2, sheet "Abl", Screen for the variant/reference peptide pair, pTyr-Var library
# [5] = variant peptide relative to its reference peptide, pTyr-Var library screen enrichment
# [6] = value of the variant peptide against its reference peptide in the pTyr-Var library screen with Fer
sequence,measurement,setting,value
AHAGEYGAVAL [HBA1_Y25_E28V],Screen,c-Src kinase domain; [1],2.935
APRKVYDTQDD [ZFPL1_Y215_R218Q],Screen,c-Abl kinase domain; [2],3.612
ARSHIYTLASC [MEFV_Y741_F743L],Screen,c-Src kinase domain; [1],0.6764
ATRDVYNPFET [SCAMP3_Y41_L38R],Screen,c-Src kinase domain; [3],-1.143
AVRFIYTIDGS [DCX_Y105_G100A_YF],Screen,c-Src kinase domain; [1],0.6298
CEAMEYPESKQ [BTK_Y511_L512P],Screen,c-Abl kinase domain; [4],-1.088
CFCSWYRGWAP [TIMP3_Y195_G190C_YF],Screen,c-Src kinase domain; [3],2.542
same,Screen,Fer kinase domain; [5],2.823
CGTPDYIAREI [PRKCG_Y521_P524R],Screen,c-Abl kinase domain; [4],0.3032
CGTPEYRAPEI [PRKACA_Y205_L206R],Screen,c-Abl kinase domain; [4],0.964
CKLVDYDSARH [BIN1_Y150_R145C],Screen,c-Abl kinase domain; [4],0.9945
CLNAIYQNNLT [GSR_Y158_R153C],Screen,Fer kinase domain; [6],1.727
CTTIRYNFMCN [TP53_Y234_H233R_YF],Screen,c-Abl kinase domain; [2],1.107
CVRTIYTIDGS [DCLK2_Y124_G119C],Screen,c-Src kinase domain; [1],0.3247
DFFDLYGGEKK [PTPN11_Y66_F71K_YF],Screen,c-Abl kinase domain; [4],0.6551
same,Screen,c-Src kinase domain; [3],-0.3154
DQVEQYNKELE [LMNA_Y259_K260N],Screen,c-Abl kinase domain; [4],-0.1463
DTLASYLDKVR [KRT12_Y139_R135T],Screen,c-Abl kinase domain; [4],-1.083
ECIEFYELDKK [PMM2_Y145_R141C],Screen,c-Abl kinase domain; [4],0.4752
EDKSIYRRGAC [PRKCI_Y125_R130C],Screen,c-Abl kinase domain; [4],0.9369
EGWQVYRLGTR [MISP_Y95_A99T],Screen,c-Src kinase domain; [1],-0.2875
EKGEEYGGGGG [TUBA1A_Y451_E447K],Screen,c-Abl kinase domain; [2],1.685
EKKKFYDAKIE [CASP5_Y104_T106A_YF],Screen,c-Abl kinase domain; [4],2.357
ELTSVYGSRAR [SENP1_Y349_D350G],Screen,c-Src kinase domain; [3],0.9781
EVASVYESFQP [MAVS_Y92_Q93E_YF],Screen,c-Src kinase domain; [1],0.01447
same,Screen,Fer kinase domain; [6],1.389
EWQQIYTFDSG [JUP_Y20_T19I_YF],Screen,c-Src kinase domain; [1],0.7952
same,Screen,Fer kinase domain; [6],3.242
FAFQLYDLDPD [CHP2_Y123_R127P_YF],Screen,c-Src kinase domain; [1],0.6897
FDAHIYEGCVI [PRKCD_Y64_R67C],Screen,c-Src kinase domain; [3],0.6982
same,Screen,Fer kinase domain; [6],2.331
FFRNVYHLASV [RBL1_Y796_K794N_YF],Screen,c-Abl kinase domain; [4],-1.016
FSGKAYADEEQ [CRIM1_Y826_R831Q],Screen,c-Abl kinase domain; [4],0.3767
FSMGCYEISLE [HMGCL_Y198_G203E_YF],Screen,c-Src kinase domain; [1],-0.09414
same,Screen,Fer kinase domain; [6],-0.6623
GGPAEYLRRAS [PKLR_Y38_G37E],Screen,c-Abl kinase domain; [4],0.6619
GKSFIYAAFHA [KCNT1_Y563_T562I],Screen,c-Src kinase domain; [1],-0.6339
GLCSFYETSKM [MAGED2_Y449_R446C_YF],Screen,Fer kinase domain; [6],1.926
GLIPAYHWVIM [NMNAT1_Y64_R66W],Screen,Fer kinase domain; [6],3.48
HISGVYKLPPD [ANGPTL7_Y145_R140H],Screen,c-Src kinase domain; [1],1.474
IGEVVYQRAAM [GRIN2A_Y502_V506A],Screen,c-Src kinase domain; [1],-0.3302
IMITGYLLLFR [INSR_Y87_D86G],Screen,c-Abl kinase domain; [4],0.04202
IRRIAYEFVEM [ADA_Y84_K80R],Screen,Fer kinase domain; [6],-0.04574
ISHVAYLVLGK [TRRAP_Y892_R893L],Screen,c-Abl kinase domain; [2],-1.807
KDPPDYKFQPR [SOX9_Y172_H169P_YF],Screen,c-Abl kinase domain; [2],-0.03774
LDPDSYNKFEN [FOXC1_Y159_M161K],Screen,c-Abl kinase domain; [4],0.592
LGKGSYAKVRS [TSSK2_Y23_K27R],Screen,c-Abl kinase domain; [2],0.9991
same,Screen,c-Src kinase domain; [3],-0.7681
LITTLYIDFLG [KCNQ1_Y267_G269D],Screen,c-Src kinase domain; [1],-1.548
LITTLYIGFLD [KCNQ1_Y267_G272D],Screen,c-Src kinase domain; [1],0.3249
same,Screen,Fer kinase domain; [6],0.7229
LNSFIYSLRNR [OR1A1_Y288_P285S],Screen,c-Abl kinase domain; [4],0.03527
same,Screen,c-Src kinase domain; [3],0.8467
LRAGVYREKDQ [DNM2_Y626_P627R],Screen,c-Abl kinase domain; [4],-0.9512
LTDTVYSSSSA [OR4C12_Y71_I67T],Screen,c-Src kinase domain; [3],-0.5241
same,Screen,Fer kinase domain; [6],0.3207
LTQRTYMLENA [GPAA1_Y49_S51L],Screen,c-Abl kinase domain; [4],-1.886
MSRDVYSIDFF [NTRK2_Y702_T704I_YF],Screen,c-Src kinase domain; [3],1.303
NACGLYHTMNG [GATA5_Y216_K218T],Screen,c-Src kinase domain; [1],2.558
NDPMEYAKQHG [ASS1_Y163_L160P],Screen,c-Abl kinase domain; [4],0.6452
NFGTNYRVGSS [CPO_Y278_K273N_YF],Screen,c-Abl kinase domain; [4],0.7292
NHFKIYNPCAE [PTEN_Y68_L70P_YF],Screen,c-Abl kinase domain; [4],0.7094
same,Screen,c-Src kinase domain; [3],-2.716
NTGFFYDLFGG [PTPN11_Y63_D61Y_YF],Screen,c-Src kinase domain; [3],-0.6353
same,Screen,Fer kinase domain; [5],-1.238
PAVGIYNGNIN [CDCP1_Y707_D709G],Screen,c-Src kinase domain; [1],0.5447
PFRFIYMAVQH [PTPN11_Y515_Q510P_YF],Screen,c-Src kinase domain; [3],-0.7023
PFSNSYENSLI [EPOR_Y489_P488S_YF],Screen,Fer kinase domain; [6],-1.474
PLDGEYFTRQI [TP53_Y327_L330R],Screen,c-Abl kinase domain; [2],1.752
same,Screen,c-Src kinase domain; [3],-2.245
PLDGEYLTLQI [TP53_Y327_F328L],Screen,c-Src kinase domain; [3],-1.75
PQIVKYRPDCI [LDHB_Y128_S129R],Screen,c-Abl kinase domain; [4],-0.6179
PRRRFYVVACD [RNASE3_Y134_G130R],Screen,c-Src kinase domain; [3],-1.377
QAEELYFGKMG [YES1_Y159_W158L],Screen,c-Src kinase domain; [3],2.237
QDEPTYARSSK [PEAK1_Y616_H611Q],Screen,c-Abl kinase domain; [4],1.067
QFFQGYFNNNF [ZNF236_Y644_S643G],Screen,c-Abl kinase domain; [2],3.465
QHVPDYRQNGF [PCDHGB6_Y889_V893G_YF],Screen,c-Abl kinase domain; [4],-1.654
QITQVYGFFHE [PPP2CA_Y127_D131H_YF],Screen,c-Src kinase domain; [3],0.1908
QLLIEYPPEEV [ZZZ3_Y670_K669E],Screen,c-Abl kinase domain; [2],2.193
QRRFLYFFSFL [PTEN_Y176_V175L_YF],Screen,Fer kinase domain; [6],-0.3574
QRRLIYRCQVG [NR2E3_Y81_R76Q],Screen,c-Abl kinase domain; [4],1.984
QRRLVYFERGA [RYR1_Y245_G248R_YF],Screen,c-Abl kinase domain; [4],1.153
RAMPVYEKAEH [TP63_Y231_K232E],Screen,Fer kinase domain; [5],2.795
RDSQIYAVDFE [MRPS34_Y34_L33I_YF],Screen,c-Src kinase domain; [1],2.537
REGAKYVSHGT [ASS1_Y113_A118T],Screen,c-Abl kinase domain; [4],0.5424
RGDTVYTVNCM [KBTBD13_Y404_R408C],Screen,c-Src kinase domain; [1],-0.9987
RNDRVYQPLRD [CD3D_Y149_Q147R],Screen,c-Src kinase domain; [1],-1.537
RNGDRYFKEIV [DCX_Y64_G67E],Screen,c-Abl kinase domain; [4],1.189
RPIEVYLCPEE [E2F3_Y349_G344R],Screen,c-Src kinase domain; [1],1.834
RTVDVYFGPQM [KIRREL3_Y332_R336Q],Screen,c-Src kinase domain; [1],1.347
SGLDSYVRSLP [TRAPPC1_Y133_R129G],Screen,c-Abl kinase domain; [2],-0.62
SKNSKYNAGST [PSEN1_Y315_E318G],Screen,c-Abl kinase domain; [4],-0.477
STEAIYWRFSK [SH3PXD2B_Y42_R43W_YF],Screen,c-Src kinase domain; [3],2.709
SVVVPYEPPEL [TP53_Y220_V225L],Screen,c-Abl kinase domain; [2],0.6095
TGQEDYDRLRP [RAC1_Y64_A59T],Screen,c-Abl kinase domain; [4],-1.28
TSPALYRLDLD [TRIL_Y352_A347T],Screen,c-Abl kinase domain; [2],-0.2355
same,Screen,c-Src kinase domain; [3],-0.36
VDGFVYKLHPS [GCK_Y413_S411F],Screen,c-Src kinase domain; [1],-2.399
VEDQFYRVDCF [FHL1_Y208_C209R_YF],Screen,c-Abl kinase domain; [4],0.3405
same,Screen,c-Src kinase domain; [1],-0.6364
VFAANYFKLLG [ROR2_Y645_D644N_YF],Screen,c-Abl kinase domain; [4],0.3272
VNFGAYINDFN [GLB1_Y488_K493N_YF],Screen,c-Abl kinase domain; [4],0.7194
VQQVIYATRAL [MYH7_Y422_G425R],Screen,c-Abl kinase domain; [4],-0.009809
same,Screen,c-Src kinase domain; [3],0.27
VTAALYGCLFE [BTD_Y536_R538C_YF],Screen,c-Abl kinase domain; [4],-0.06766
same,Screen,c-Src kinase domain; [1],-0.3028
WANPEYTGGFK [TTN_Y22309_K22306N],Screen,c-Abl kinase domain; [2],-1.867
YDDGKYVYVVT,Enrichment score (mean),"c-Src kinase domain; pTyr-Var library screen with c-Src, sheet ""Src substrates"": annotated Src substrate sites, 11-residue peptide SITE_+/-5_AA, mean",1.305
